Source: article PMC4122355, “Inhibitor of the Tyrosine Phosphatase STEP Reverses Cognitive Deficits in a Mouse Model of Alzheimer's Disease” (PLoS Biology, 2014)
Read-outs that look alike come from different tables or passages of the source.

Legend:
[1] = cited from earlier work
[2] = tested on: GluN2B (Y1472), Pyk2 (Y402), ERK1/2 (Y204/187) in cortical neurons; experiment: Tyr phosphorylation of STEP substrates in cortical neuronal cultures (Western blot); type: cell-based, rat; conditions: 1 µM dose, 1 h, relative to vehicle
Method: (§1) Primary cortical neurons were isolated from Sprague Dawley rat embryos (E18) (Charles River Laboratories, Wilmington, MA) as previously described. In some experiments, cortical neurons were made from WT and STEP KO mouse embryos (E18). Neurons were allowed to grow for 18–21 d in CO2 incubator before addition of compounds at indicated doses for 1 h. Immediately following treatments, neurons were lysed in RadioImmuno Precipitation Assay (RIPA) buffer supplied with protease inhibitor cocktail (Roche Applied Science, Indianapolis, IN) and phosphatase inhibitors (NaF and Na3VO4). All experiments were replicated four times with four independent batches of cultures.
(§2) Samples were prepared and resolved by SDS-PAGE, transferred to nitrocellulose membrane, and incubated with phospho-specific antibodies (anti-pY^204/187 ERK1/2, anti-pY^402 Pyk2, anti-pY^1472 GluN2B) or total protein antibodies (anti-ERK2, anti-Pyk2, and anti-NR2B) overnight at 4°C. Immunoreactivity was visualized using a Chemiluminescent substrate kit (Pierce Biotechnology, Rockford, IL) and detected using a G:BOX with the image program GeneSnap (Syngene, Cambridge, UK). All densitometric quantifications were performed using the Genetools program.

[3] = tested on: GluN2B (Y1472), Pyk2 (Y402), ERK1/2 (Y204/187) in cortex; experiment: Tyr phosphorylation of STEP substrates in cortex of WT mice after i.p. injection; type: in vivo, mouse; conditions: C57BL/6 mice, 1 mg/kg i.p., 3 h postinjection, relative to vehicle
Method: Wild-type, male C57BL/6 mice (3–6 mo) were used for all studies. […] Cortical tissues were dissected out 3 h postinjection and processed for subcellular fractionation. […] Homogenates were centrifuged at 800 × g to remove nuclei and large debris (P1). Synaptosomal fractions (P2) were prepared from S1 by centrifugation at 9,200 × g for 15 min. The P2 pellet was washed twice and was resuspended in TEVP buffer. […] Samples were prepared and resolved by SDS-PAGE, transferred to nitrocellulose membrane, and incubated with phospho-specific antibodies (anti-pY^204/187 ERK1/2, anti-pY^402 Pyk2, anti-pY^1472 GluN2B) or total protein antibodies (anti-ERK2, anti-Pyk2, and anti-NR2B) overnight at 4°C. Immunoreactivity was visualized using a Chemiluminescent substrate kit (Pierce Biotechnology, Rockford, IL) and detected using a G:BOX with the image program GeneSnap (Syngene, Cambridge, UK). All densitometric quantifications were performed using the Genetools program.

[4] = tested on: GluN2B Y1472, Pyk2 Y402, ERK1/2 Y204/187 in WT and STEP KO cortical neurons; experiment: Tyr phosphorylation of STEP substrates in WT and STEP KO mouse cortical cultures; type: cell-based; conditions: STEP KO cultures, 1 h; TC-2153 0.1 and 1 µM, Na3VO4 1 mM
Method: as §1, §2

## S1SSSSSSS1 [Compound S8, sulfur (S8)]
[1]; stated without reference
  Solubility in aqueous solution: poorly soluble
[2]
  pERK1/2 (Y204/187), phospho-signal normalized to total protein and GAPDH: 1.67±0.14
  pGluN2B (Y1472), phospho-signal normalized to total protein and GAPDH: 1.33±0.08
  pPyk2 (Y402), phospho-signal normalized to total protein and GAPDH: 1.49±0.12
[3]
  pERK1/2 in cortex (P2 fraction): 1.57±0.13
  pGluN2B in cortex (P2 fraction): 1.31±0.11
  pPyk2 in cortex (P2 fraction): 1.46±0.14

## [Na+].[Na+].[Na+].[O]=[V]([O-])([O-])[O-] [sodium orthovanadate, reference compound]
[4]
  Tyr phosphorylation of STEP substrates in STEP KO cortical cultures: further increased the Tyr phosphorylation of these substrates

## COc1cc(CCN)c2c(c1OC)SSSSS2 [varacin, reference compound]
[1]
  Solubility in aqueous solution: reasonable solubility in aqueous solution
